The values below come from publication PMC3843727, “Isolation and Functional Characterization of Calcitonin-Like Diuretic Hormone Receptors in Rhodnius prolixus” (PLoS ONE, 2013).

One experiment has as its system Rhopr-CT/DH-R2-B. The experiment in a line: Bioluminescence (calcium mobilization) assay, HEK293/CNG cells expressing Rhopr-CT/DH-R2-B. Type of experiment: cell-based, R. prolixus. The following applies: luminescence. The source says: (§1) The largest cDNA fragments encoding Rhopr-CT/DH-R1 transcript variants and Rhopr-CT/DH-R2-B were amplified as described earlier (see section: Isolation of cDNA sequences encoding R. prolixus CT/DH receptors). The PCR products from these reactions were used as a template to amplify the ORF and introduce a Kozak translation initiation sequence at the 5´ end using the primers listed in Table S5 in File S1. The resulting products were cloned into pGEM-T Easy vector (Promega, Madison, WI, USA). These were then subcloned into either pIRES2-ZsGreen1 (Clontech, Mountain View, CA, USA) or pcDNA 3.1^+ (Life Technologies Corporation, Carlsbad, CA, USA) for expression in mammalian cells.
(§2) Human embryonic kidney (HEK)-293 cells stably expressing a modified cyclic nucleotide-gated (CNG) channel (HEK293/CNG) (previously available through BD Biosciences, Mississauga, ON, Canada) were used to functionally characterize the receptors. […]
(§3) Bioluminescence assay using CHO/G16 cells was performed as described previously. […] Cells were loaded in each well using an automated injector and the luminescence recorded over 20 seconds using a Wallac Victor2 plate reader (Perkin Elmer, San Diego, CA, USA). […] Dose-response curves were obtained and the EC50 values determined using Prism5 software.
(In general: Calcium flux is commonly read through the fluorescence of an indicator in the cells.)

Another experiment relates to Rhopr-CT/DH-R1-B. Put plainly: Bioluminescence (calcium mobilization) assay, HEK293/CNG cells expressing Rhopr-CT/DH-R1-B. Type of experiment: cell-based, R. prolixus. Particulars: luminescence.
Source text: as §1, §2, §3

In the next experiment the test system is Rhopr-CT/DH-R1-C. The experiment in a line: Bioluminescence (calcium mobilization) assay, HEK293/CNG cells expressing Rhopr-CT/DH-R1-C. In kind it is cell-based, R. prolixus. The following applies: luminescence.
Source text: as §1, §2, §3

Another experiment concerns Malpighian tubules. The following applies: reference stimulant; cited from earlier work.

Ends that are not written are not given here.

Consider “NSELINSLLSLPKNMNDA-NH2 [Drome-PDF, D. melanogaster pigment dispersing factor, custom synthesized by GeneMed Synthesis at > 95% purity]”, for which the receptor activation entry in the experiment on Rhopr-CT/DH-R2-B, in the experiment with Rhopr-CT/DH-R1-B and with Rhopr-CT/DH-R1-C was “None of these receptors were activated” each time.

For the molecule “MQRPQGPSLSVANPIEVLRSRLLLEIARRRMKEQDASRVSKNRQYLQQI-NH2 [Rhopr-CRF/DH, R. prolixus corticotropin releasing-factor (CRF)-related diuretic hormone, custom synthesised by GenScript at > 95% purity]”, the receptor activation entry in the experiment on Rhopr-CT/DH-R2-B, in the experiment on Rhopr-CT/DH-R1-B and in the experiment with Rhopr-CT/DH-R1-C was “None of these receptors were activated” in each case. For the same molecule, the “rate of fluid secretion by MTs” value in the experiment on Malpighian tubules was “maximum rate”.

On to `NCCc1c[nH]c2ccc(O)cc12` [serotonin], for which, in the experiment with Malpighian tubules, the “rate of fluid secretion by MTs” value is given as “maximum rate”.
